The text below walks through data of patent US20190142949A1, “COVALENT CONJUGATES” (GLAXOSMITHKLINE INTELLECTUAL PROPERTY DEVELOPMENT LIMITED, priority 2015, published 2019).

Structures are written as SMILES.

In experiment [1] the target is T1, Bromodomain BRD4 Binding Domain 1 (BD1) [BRD4 (Y390A)] (Homo sapiens, UniProt O60885, Y390A).
T1 construct: made in house; host or cells: E. coli (pET15b vector)
Put plainly: TR-FRET binding assay, Bromodomain BRD4 BD1 mutant assay. Conditions: for IC50: TR-FRET, BRD4 (Y390A) 10 nM, Alexa Fluor647 ligand at Kd, read-out: pIC50 in the BRD4 BD1 assay (converted). Here is the method: Binding was assessed using a time resolved fluorescent resonance energy transfer binding assay. This utilises a 6 His purification tag at the N-terminal of the proteins as an epitope for an anti-6 His antibody labeled with Europium chelate (PerkinElmer AD0111) allowing binding of the Europium to the proteins which acts as the donor fluorophore. A small molecule, high affinity binder of the bromodomain BRD4 has been labeled with Alexa Fluor647 (Reference Compound X) and this acts as the acceptor in the FRET pair.
In the absence of a competing compound, excitation of the Europium causes the donor to emit at λ618 nm which excites the Alexa labelled bromodomain binding compound leading to an increased energy transfer that is measurable at λ647 nM. In the presence of a sufficient concentration of a compound that can bind these proteins, the interaction is disrupted leading to a quantifiable drop in fluorescent resonance energy transfer.
The binding of Examples 1 to 11 to Bromodomain BRD4 was assessed using mutated proteins to detect differential binding to Binding Domain 1 (BD1) on the bromodomain. These single residue mutations in the acetyl lysine binding pocket greatly lower the affinity of the fluoroligand (Reference Compound X) for the mutated domain (>1000 fold selective for the non-mutated domain). Therefore in the final assay conditions, binding of the fluoroligand to the mutated domain cannot be detected and subsequently the assay is suitable to determine the binding of compounds to the single non-mutated bromodomain.
Recombinant Human Bromodomain [BRD4 (Y390A)] was expressed in E colicells (pET15b vector) with a 6-His tag at the N-terminal. […]
All assay components were dissolved in buffer composition of 50 mM HEPES pH7.4, 50 mM NaCl, 5% Glycerol, 1 mM DTT and 1 mM CHAPS. […] Plates were then read on the Envision platereader, (λex=317 nm, donor λem=615 nm; acceptor λem=665 nm; Dichroic LANCE dual). Time resolved fluorescent intensity measurements were made at both emission wavelengths and the ratio of acceptor/donor was calculated and used for data analysis. […]
Background: In TR-FRET formats the signal depends on donor and acceptor labels being close together.

Experiment [2] relates to LPS induced MCP-1 production from human whole blood. Put plainly: LPS induced MCP-1 production from human whole blood. The experiment is classed as cell-based. Conditions: LPS 200 ng/mL, 18-24 hours, read-out: pIC50, LPS induced MCP-1 production (converted). Here is the method:
Activation of monocytic cells by agonists of toll-like receptors such as bacterial lipopolysaccharide (LPS) results in production of key inflammatory mediators including MCP-1. Such pathways are widely considered to be central to the pathophysiology of a range of auto-immune and inflammatory disorders. Blood is collected in a tube containing Sodium heparin (Leo Pharmaceuticals) (10 units of heparin/mL of blood). 96-well compound plates containing 1 μL test sample in 100% DMSO were prepared (two replicates on account of donor variability). 130 μL of whole blood was dispensed into each well of the 96-well compound plates and incubated for 30 min at 37° C., 5% CO2. 10 μL of lipopolysaccharide (from Salmonella typhosa; L6386) made up in PBS (200 ng/mL final assay concentration) was added to each well of the compound plates. The plates were then placed in the humidified primary cell incubator for 18-24 hours at 37° C., 5% CO2. 140 μL of PBS was added to all wells of the compound plates containing blood. The plates were then sealed and centrifuged for 10 mins at 2500 rpm. […] 150 μL of 2×MSD Read Buffer T (stock 4×MSD Read Buffer T was diluted 50:50 with de-ionised water) was then added to each well and the plates read on the MSD Sector Imager 6000. Concentration response curves for each compound were generated from the data and an IC50 value was calculated.

Regarding `Cc1cc(-c2nc3cc(CN[C@@H](CC(C)C)C(=O)OC4CCCC4)ccc3n2CC2CCOCC2)c[nH]c1=O` [Example 3, (S)-cyclopentyl 4-methyl-2-(((2-(5-methyl-6-oxo-1,6-dihydropyridin-3-yl)-1-((tetrahydro-2H-pyran-4-yl)methyl)-1H-benzo[d]imidazol-5-yl)methyl)amino)pentanoate], the figures for the IC50 in experiment [1] and in experiment [2] were 0.794 µM and 0.0794 µM, respectively.

On to `Cc1cc(-c2nc3ccccc3n2CC2CCOCC2)c[nH]c1=O` [Example 10, 3-methyl-5-(1-((tetrahydro-2H-pyran-4-yl)methyl)-1H-benzo[d]imidazol-2-yl)pyridin-2(1H)-one], for which the IC50 in experiment [1] is 0.398 µM; in experiment [2], 2.51 µM.

As to `COc1ccc2c(c1)C(c1ccc(Cl)cc1)=N[C@@H](CC(=O)NCCCCCNC(=O)CCCCCC1(C)/C(=C/C=C/C=C/C3=[N+](CCCCS(=O)(=O)O)c4ccc(S(=O)(=O)O)cc4C3(C)C)N(CCCCS(=O)(=O)[O-])c3ccc(S(=O)(=O)O)cc31)c1nnc(C)n1-2` (some centres unmarked) [Reference Compound X, reference compound], the “selectivity of the fluoroligand for the non-mutated domain over the mutated domain” value in experiment [1] (single residue mutations in the acetyl lysine binding pocket) was above 1000 fold.
